Entries after “also recorded” stand apart in the source; their conditions may differ. Where no end group is shown, it is not given here.
How the values were obtained:
[1] = Temperature dependent CD: temperature at which folding and self-assembly is triggered (Tgel); type: physicochemical; details: pH 9 and low (20 mM) salt
Description: At low temperature MAX1 is unfolded (and unassembled). At high temperature MAX1 folds into beta-sheet (and consequently self-assembles into a hydrogel). […] The relative hydrophobicity is MAX1>MAX2>MAX3 due to the isostructural but less hydrophobic substitutions of threonine for valine at the underlined positions. The most hydrophobic folds at the lowest temperature while the least hydrophobic folds at the highest temperature. This is a direct manifestations of the molecular parameter manipulations described in FIG. 2. Also shown are the calculated free energy of transfer of each corresponding unfolded peptide having an overall +8 charge state from octanol into water at 25° C. MAX1, the most hydrophobic has the highest free energy of transfer equal to 7.60 kcal/mol. MAX2 has a calculated transfer free energy of 6.88 kcal/mol, while the least hydrophobic MAX3 has the lowest energy of transfer of 6.45 kcal/mol.
This allows the characteristics of the hydrogels of the invention to be varied by adjusting these parameters. […] It is well known that water is better able to solvate hydrophobic groups at low temperatures. This phenomenon has been used to describe the cold denaturation of proteins where some proteins unfold at low temperatures, exposing their hydrophobic interiors to aqueous solvent. A 150 μM aqueous solution of MAX1 unfolds when cooled below room temperature. The CD spectrum at 5° C. is consistent with random coil conformation, FIG. 9A. However, warming the solution to 40° C. results in a spectra consistent with β-sheet structure. […] In fact, previous studies involving the pH induced folding and self-assembly of MAX1 were performed at 20° C. At this temperature, folding and self-assembly are slow enough to be conveniently monitored. At higher temperatures, folding and self: assembly leading to hydrogelation is fast (instantaneous to seconds depending on concentration). If the formation of hydrophobic interactions affects the folding and self-assembly process, then altering the hydrophobic content of MAX1 should affect the temperature at which folding is triggered. […] MAX2 is identical to MAX1 except that one valine residue has been replaced with the isostructural, but less hydrophobic residue, threonine. In MAX3, two valines are replaced with threonine residues. The resulting peptides vary in their hydrophobicity as evident by comparing calculated free energies of transfer from octanol into water, FIG. 9. […] Thus, the formation of hydrophobic contacts influences folding and self-assembly. […] Thus, the characteristics of the hydrogels of the invention can be varied by adjusting the amino acid residues of the peptides used to form the hydrogels to increase or decrease the hydrophobicity of the amino acid residues used.
There are reports of large polymers that are thermally responsive. The present invention provides the first system that employs temperature triggered folding to induce self-assembly. […] Heating the solution to 80° C. results in a spectra consistent with β-sheet structure. […] The temperatures used in both CD and rheology bracket the temperature (Tgel=60° C., FIG. 9) at which folding and consequent self-assembly is triggered. […] For example, free flowing peptide solutions could be prepared at room temperature and administered in vivo where the temperature of the body could induce gelation. […]

[2] = system: fibroblasts (NIH 3T3, mouse); test: Fibroblast adhesion and proliferation on hydrogel by optical microscopy; type: cell-based
Experimental: These cells were used as a model system because of their importance in connective tissue development and their easily distinguished morphology when adhered to the hydrogel scaffold. Qualitative studies were performed in which cells were added to either polystyrene control wells or wells containing a uniform slab (3 mm thick) of MAX1-hydrogel. Cell adhesion was qualitatively monitored via direct observation of cell spreading after four hours from the time of initial cell seeding by optical microscopy (a quantitative cell attachment assay is described below, see also Akiyama, S. K. Functional analysis of cell adhesion: Quantitation of cell-matrix attachment, 2002; Vol. 69, pp 281-296). Non-adhered fibroblasts have rounded morphologies and adhered fibroblasts have spread morphologies Proliferation was measured both qualitatively by optical microscopy and quantitatively by a ^3H thymidine-based cell seeding assay as described below. Hydrogels were prepared in 48 well tissue culture plates by either one of the following protocols. Protocol 1: MAX1 was dissolved in water (resulting in an acidic solution, pH~5) and an equal volume of buffer (pH 9, 250 mM borate, 20 mM NaCl) was added at room temperature to induce folding/self-assembly resulting in a 2 wt % hydrogel. The resulting gel was bathed in DMEM containing 10% calf serum and […] gentamicin. This allowed media to permeate throughout the gel and adjust the pH to 7.3 The storage moduli (rigidity) of gels prepared by protocol 1 are about 1600 Pa. Protocol 2: MAX1 was dissolved in water and an equal volume of serum free DMEM containing […] gentamicin was added to induce folding/self-assembly affording 2 wt % hydrogels. Depending on the experiment, DMEM containing calf serum can then be added to introduce serum proteins. The storage moduli of gels prepared by protocol 2 are about 1200 Pa. […] Proliferation of the cells occurs until confluency is reached, usually around 72 hours if 10^4 cells are initially plated, FIG. 16B. Cells remain viable for at least a month as long as fresh media is provided (we stopped the assay after 1 month). Cells added to control wells containing no gel show similar behavior, FIGS. 16 C and D. In FIGS. 16A-D, cells are plated in the presence of DMEM containing 10% calf serum. Serum proteins may help mediate cellular adhesion to the hydrogel by first coating the scaffold. To determine if the hydrogel scaffold alone is conducive to cell adhesion, cells were plated onto 2 wt. % hydrogels in the absence of serum. […] The incorporation of cell binding epitopes in peptides used in hydrogel formation may be used to enhance cell adhesion in the absence of serum.

## VKVKVKVK V^DPPT KVKVKVKV-NH2 (not fully specified (C-terminus)) [MAX1]
[1]
  transition temperature from random coil to folded β-sheet structure: around 25 °C
[2]; 2 wt % gel, 10^4 cells initially plated, DMEM with 10% calf serum
  time to confluency: around 72 hours
[2]; 2 wt % gel, DMEM with 10% calf serum, after four hours
  fibroblast adhesion to gel surface in the presence of serum: adhered; also recorded: efficiently attached
[2]; 2 wt. % hydrogels, after about four hours
  fibroblast attachment and spreading in the absence of serum, compared to serum containing cultures: to a lesser extent; also recorded: less efficiently
[2]; 2 wt. % hydrogels, plated without serum, 72 hours
  cell proliferation after addition of serum at four hours: near confluency
[2]; fresh media provided
  time cells remain viable on gel: ≥ 1 month
